In patent publication US20080085917A1, “7-(2-(4-(3-TRIFLUOROMETHYL-PHENYL)-1,2,3,6-TETRAHYDROPYRID-1-YL)ETHYL)ISOQUINOLINE BESYLATE SALT, PREPARATION AND THERAPEUTIC USE THEREOF” (sanofi-aventis, priority 2005, published 2008):
Values belong to the compound of their own block, whether it stands above or below them.

Experiments:
Assay type in all cases: physicochemical
[1] = Chemical stability of salts exposed to heat and moisture, measured by HPLC; details: for Purity after 14 days at 80° C./80% RH: 14 days at 80° C. and 80% relative humidity; for Initial purity: before exposure (baseline of stability study)
Description: The chemical stability of the compound of formula (I) in the dihydrochloride, dihydrogensulfate, fumarate, dibenzenesulfonate and monobenzenesulfonate forms was studied.
Each of the five above salts is exposed to heat, to moisture and to light under the conditions below: • 14 days at a temperature of 80° C., • 14 days at a temperature of 80° C. and a relative humidity (RH) level of 80%, • exposure to light of 400 W.Hrs.m^−2.

[2] = Water content by thermogravimetric analysis (TGA); details: for Loss in weight / Nature of the solvent: TGA; for Loss in weight: from 25° C., 10° C./min, nitrogen purge; for Nature of the solvent: solvent lost; for Hydration state: from TGA curve
Description: The water content of the five above salts was studied by thermogravimetric analysis (TGA).
The TGA tests are carried out in a TA8000 device equipped with a TGA850 module. The temperature calibrations are carried out conventionally using the melting of indium.
The experimental parameters employed were:
Final temperature: 250° C. for the dihydrochloride, 300° C. for the fumarate, 200° C. or 250° C. for the dihydrogensulfate, 250° C. or 300° C. for the dibesylate and the besylate.
The system is purged using nitrogen at a flow rate of 70 ml/min.
The pans used were 70 μl silica pans.

[3] = Water sorption isotherms (DVS); details: 25° C.
Description: The DVS tests are carried out using a DVS-1 system. From 20 to 32 mg of product are used per analysis and the temperature is maintained at 25° C. plus or minus 0.2° C. Nitrogen is used as carrier gas at a flow rate of 100 ml/min in the sample chamber.

Compound: FC(F)(F)c1cccc(C2=CCN(CCc3ccc4ccncc4c3)CC2)c1.O=S(=O)(O)c1ccccc1 [Besylate, 7-(2-(4-(3-(trifluoromethyl)phenyl)-1,2,3,6-tetrahydropyrid-1-yl)ethyl)isoquinoline besylate]
Purity after 14 days at 80° C. [1]: 97.9%
Purity after 14 days at 80° C./80% RH [1]: 96.5%
Initial purity [1]: 98.2%
Loss in weight [2]: 0.11 % weight/weight
Nature of the solvent [2]: Water
Hydration state [2]: not hydrated
Hygroscopicity (sorption isotherms), in words [3]: least hygroscopic of all the salts tested
Hysteresis in sorption/desorption [3]: No hysteresis

Purity after 14 days at 80° C. [1]: 96.7%
Purity after 14 days at 80° C./80% RH [1]: 32.4%
Initial purity [1]: 97.9%
Loss in weight [2]: 0.45 % weight/weight
Nature of the solvent [2]: Solvent + water
Hygroscopicity (sorption isotherms), in words [3]: weakly hygroscopic
Compound: Fumarate

Compound: FC(F)(F)c1cccc(C2=CCN(CCc3ccc4ccncc4c3)CC2)c1.O=S(=O)(O)O.O=S(=O)(O)O [Dihydrogensulfate]
Purity after 14 days at 80° C. [1]: 91.9%
Purity after 14 days at 80° C./80% RH [1]: 88.5%
Initial purity [1]: 93.3%
Loss in weight [2]: 2.06 % weight/weight
Nature of the solvent [2]: Solvent + water
Hygroscopicity (sorption isotherms), in words [3]: significant acquisition of water
Hysteresis in sorption/desorption [3]: hystereses observed during the desorption

Compound: FC(F)(F)c1cccc(C2=CCN(CCc3ccc4ccncc4c3)CC2)c1.O=S(=O)(O)c1ccccc1.O=S(=O)(O)c1ccccc1 [Dibesylate]
Purity after 14 days at 80° C. [1]: 97.5%
Purity after 14 days at 80° C./80% RH [1]: 96.2%
Initial purity [1]: 97.5%
Loss in weight [2]: 0.72 % weight/weight
Nature of the solvent [2]: Water
Hygroscopicity (sorption isotherms), in words [3]: significant acquisition of water
Hysteresis in sorption/desorption [3]: hystereses observed during the desorption

Compound: Cl.Cl.FC(F)(F)c1cccc(C2=CCN(CCc3ccc4ccncc4c3)CC2)c1 [Dihydrochloride]
Purity after 14 days at 80° C. [1]: 95.6%
Purity after 14 days at 80° C./80% RH [1]: 92.9%
Initial purity [1]: 97.0%
Loss in weight [2]: 11.0 % weight/weight
Nature of the solvent [2]: Water
Hydration state [2]: three water molecules per mole of anhydrous salt
Hysteresis in sorption/desorption [3]: weak hysteresis
Water acquired during the sorption cycle ([3]; between 30 and 80% relative humidity): 1.9 % weight/weight
